The target of this test is T1, CpomOrco (homomeric) (Cydia pomonella, UniProt H9A5M2).
T1 construct: full-length CDS in pcDNA5/TO, expressed alone in HEK293 cells (HEK293A in methods, HEK293T in results)
T1 sequence (H9A5M2 1-473): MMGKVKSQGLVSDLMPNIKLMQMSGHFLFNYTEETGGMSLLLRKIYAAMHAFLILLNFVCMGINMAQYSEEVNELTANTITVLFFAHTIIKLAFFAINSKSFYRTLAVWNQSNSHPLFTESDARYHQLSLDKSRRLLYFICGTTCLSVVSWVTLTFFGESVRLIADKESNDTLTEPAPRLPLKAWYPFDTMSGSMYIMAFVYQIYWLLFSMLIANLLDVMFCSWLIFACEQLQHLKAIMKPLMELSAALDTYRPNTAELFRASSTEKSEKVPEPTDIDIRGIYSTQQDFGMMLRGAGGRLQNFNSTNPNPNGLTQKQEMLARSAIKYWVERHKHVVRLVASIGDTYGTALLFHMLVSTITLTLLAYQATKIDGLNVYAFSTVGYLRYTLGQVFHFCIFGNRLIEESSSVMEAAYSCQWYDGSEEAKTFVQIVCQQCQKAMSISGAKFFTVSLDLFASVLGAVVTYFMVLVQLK
Kind of test: Fluo-4 calcium imaging in HEK293 cells, Hill fit. In kind it is cell-based. Conditions: read-out: [VUAA1]1/2.

`CCc1ccc(NC(=O)CSc2nnc(-c3cccnc3)n2CC)cc1` [VUAA1, acetamide, N-(4-ethylphenyl)-2-[[4-ethyl-5-(3-pyridinyl)-4H-1,2,4-triazol-3-yl]thio]-]: the EC50 was 284 ± 39 µM.
